Test results reported in ChEMBL document CHEMBL2413026, “Synthesis and biological evaluation against Leishmania amazonensis of a series of alkyl-substituted benzophenones” (Bioorg Med Chem, 2013).
Values after ≈ are worked out from the molar mass of the structure shown.

Key:
[1] = system: Leishmania amazonensis; test: Leishmanicidal activity against promastigote form of Leishmania amazonensis MHOM/BR/71973/M2269 after 72 hrs by cell counting; assay type: functional, organism-based; conditions: MHOM/BR/71973/M2269, 72 h
[2] = Cytotoxicity against mouse peritoneal macrophages after 72 hrs by MTT assay; assay type: cell-based, Peritoneal macrophage cell
[3] = Selectivity index, ratio of CC50 for mouse peritoneal macrophages to IC50 for promastigote form of Leishmania amazonensis MHOM/BR/71973/M2269; assay type: functional
[4] = system: Leishmania amazonensis; test: Ratio of 4,4'-dihydroxybenzophenone IC50 to compound IC50 for spromastigote forms of Leishmania amazonensis MHOM/BR/71973/M2269 after 72 hrs by cell counting; assay type: functional

SMILES | IC50 [1] [µg/mL] | CC50 at 72 h [2] [µg/mL] | Ratio CC50/IC50 [3] | Ratio IC50 [4]
O=C(c1ccccc1)c1ccc(O)cc1 | 40.9 (≈ 206 µM) | > 160 |  | 
O=C(c1ccc(O)cc1)c1ccc(O)cc1 | 121 (≈ 567 µM) | > 160 |  | 
COc1ccc(C(=O)c2ccccc2)cc1 | 5.05 (≈ 23.8 µM) | 28 (≈ 132 µM) |  | 
CCCCOc1ccc(C(=O)c2ccccc2)c(O)c1 | 9.8 (≈ 36.3 µM) | 40.6 (≈ 150 µM) |  | 
CC(C)=CCOc1ccc(C(=O)c2ccccc2)c(O)c1 | 7.05 (≈ 25 µM) | 140 (≈ 496 µM) | 19.86 | 
CCCCOc1ccc(C(=O)c2ccccc2)cc1 | 8.56 (≈ 33.7 µM) | 28.9 (≈ 114 µM) |  | 
CC(C)=CCOc1ccc(C(=O)c2ccccc2)cc1 | 7.82 (≈ 29.4 µM) | 87.1 (≈ 327 µM) |  | 
CCCCOc1ccc(C(=O)c2ccc(OCCCC)cc2)cc1 | 23.8 (≈ 72.9 µM) | > 160 |  | 
CC(C)=CCOc1ccc(C(=O)c2ccc(OCC=C(C)C)cc2)cc1 | 5.94 (≈ 16.9 µM) | > 160 | 26.93 | 250
O=C(c1ccccc1)c1ccc(O)cc1O [2,4-DIHYDROXYBENZOPHENONE] | 29 (≈ 135 µM) | > 160 |  | 
C[C@@H]1[C@H](O)[C@@H](C)/C=C/C=C/C=C/C=C/C=C/C=C/C=C/[C@H](O[C@@H]2O[C@H](C)[C@@H](O)[C@H](N)[C@@H]2O)C[C@@H]2O[C@](O)(C[C@@H](O)C[C@@H](O)[C@H](O)CC[C@@H](O)C[C@@H](O)CC(=O)O[C@H]1C)C[C@H](O)[C@H]2C(=O)O [AMPHOTERICIN B] | 4.7 (≈ 5.09 µM) | 25 (≈ 27.1 µM) | 5.32 | 
COc1ccc(C(=O)c2ccccc2)c(O)c1 [OXYBENZONE] | 4.9 (≈ 21.5 µM) | 24.6 (≈ 108 µM) |  | 
N=C(N)c1ccc(OCCCCCOc2ccc(C(=N)N)cc2)cc1 [PENTAMIDINE] | 0.44 (≈ 1.29 µM) | 3.82 (≈ 11.2 µM) | 8.68 | 
